Measurements reported in patent publication US8652439B2, “Compositions of HSP60 peptides and viral antigens for vaccination and diagnosis” (priority 2005, dated 2014).
Entries after “also recorded” stand apart in the source; their conditions may differ.

Legend:
[1] = test system: MCMV; assay: Infectious MCMV titers in salivary gland of immunized mice after MCMV challenge (plaque assay); assay type: in vivo, BALB/c mice; conditions: for Infectious MCMV titer in salivary gland: immunized twice, peptides in IFA
[2] = test system: salivary gland mononuclear cells; assay: IFNγ-positive salivary gland mononuclear cells 28 days after MCMV challenge of vaccinated mice; assay type: in vivo, BALB/c mice; conditions: 28 days after virus challenge of immunized mice; 8 hr 89pep stimulation
[3] = test system: IL-4; assay: IL-4 ELISA of spleen cell cultures after vaccination; assay type: in vivo, BALB/c mice; conditions: spleen cell cultures of immunized mice
[4] = test system: MCMV; assay: Immunization after MCMV challenge in combination with Gancyclovir; MCMV-DNA PCR in salivary glands; assay type: in vivo, BALB/c mice; conditions: day 30 after challenge; GCV i.p. with or without one immunization on day 6
Procedure: DNA was extracted from naïve and infected spleens and salivary gland using QiAmp Tissue Kit (QIAGEN Inc. Chatsworth, Calif., USA), according to appropriate QiAmp protocols. DNA oligonucleotide primers were synthesized according to the published sequence of MCMV gB gene (Rapp et al., 1992). […]. This gB gene primer pair amplifying a 356 bp segment was found the most sensitive in previous studies (Palmon et al., 1996). For gene amplification, 1 μg of DNA sample was added to the reaction mixture containing 200 μM each dNTP, 100 pmol each primer, 1.0 mM MgSO4, 10 mM KCl, 10 mM (NH4)2SO4, 20 mM Tris-HCl (pH 8.8), 0.1% Triton X-100 and 2 U of vent polymerase (Biolabs) in a total reaction volume of 50 μl each. Samples were amplified for 30 cycles in an automated thermal cycler (Perkin Elmer Cetus, USA). Each cycle entailed denaturation at 94° C. for 60 sec, annealing at 68° C. for 90 sec and primer extension at 72° C. for 120 sec. PCR products were electrophoretically separated on 1.5% agarose gel, stained with ethidium bromide, and photographed. The lower limit of detection for this method under the experimental conditions was 5 femtograms of viral DNA corresponding to about 20 copies of the MCMV genome (Palmon et al., 1996).
3-week old BALB/c mice were challenged i.p. with 5×10^4 pfu of MCMV (day 0). On day 6, mice were immunized once with IFA alone, 89pep or p458-89pep emulsified in IFA, as described above. Mice were treated with 100 μg of the anti viral medication Gancyclovir (GCV, Roche, Basel, Switzerland) i.p. on days 1, 2, 3, 4, 8, 9, 10 and 11 after challenge. Mice were sacrificed on day 30 after challenge and MCMV-DNA was measured by a PCR assay in the salivary glands, as specified above (FIG. 14A).

[5] = test system: P815 cells pulsed with the 89pep; assay: Cytotoxic T cell assay of spleen cell cultures after vaccination; assay type: in vivo, BALB/c mice; conditions: spleens 7 d after one immunization, 6 days re-stimulation with 89pep; P815 loaded with 89pep
Procedure: The cytotoxic activity against the MCMV 89pep was assessed in a 4-h cytotoxic assay using the CytoTox 96 non-radioactive, colorimetric-based kit (Promega, Madison, Wis.), according to manufacturer instructions. This assay is based on the quantitative measurement of lactate dehydrogenase, a stable cytosolic enzyme that is released upon cell lysis. Spleen cell suspensions from immunized mice, prepared as described above, were re-stimulated in vitro for 6 days with 89pep (10 μg/ml) and rhIL-2 (25 IU/ml) from day 2. Target cells for the lysis assay were P815 cells (mastocytoma, H-2^d). P815 were either non-pulsed or pulsed with 89pep (1 μg/ml) for 2 h and then washed before incubation with effector cells. In all experiments shown, the spontaneous release was less than 25% of maximal release. Each point in a lysis assay represents the average of triplicate values. The range of the triplicates was within 5% of their mean.
We also investigated whether the CD8^+IFNγ^+ cells induced by the p458-89pep were able to lyse specifically 89pep-loaded target cells. Mice were immunized once and 7 d later, spleens were harvested and re-stimulated with 89pep. Six days later, lytic activity was assayed on P815 (H-2^d) loaded with the 89pep. […]

[6] = test system: IFNγ-positive spleen cells; assay: FACS intracellular IFNγ staining of spleen cells after vaccination; assay type: in vivo, BALB/c mice; conditions: 7 days after one immunization; 5 days re-stimulation with 89pep
Procedure: For phenotypic analysis, spleen and salivary gland mononuclear cells of MCMV-infected and naïve mice were cultured as described above and were stained for CD8 and CD4, IFNγ and IL-5 using directly-labeled antibodies (PharMingen, San Diego, Calif.). Intracellular cell staining (ICCS) for IFNγ, IL-4 and IL-5 was performed using PharMingen's Cytofix/Cytoperm Plus kit with GolgiPlug (containing Brefeldin A) according to the manufacturer's instructions. Briefly, GolgiPlug was added to the 8 h-incubated immune cell cultures (established as described above, with or w/o peptide stimulation). After the additional 6 h of incubation in the incubator cells (minimum 10^6 per sample) were harvested, washed in PBS supplemented with 2% FBS and 0.09% Sodium azide, and incubated in 50 μl of FC blocker, labeled with anti-CD4 and anti-CD8 surface markers. Then cells were fixed, permeabilized and treated with anti-IFNγ, anti-IL-4 or anti-IL-5 antibodies for intracellular cytokine detection. Stained cells were immediately analyzed on a FACSCalibur flow cytometer (Becton-Dickinson, Mansfield, Mass.) and 50,000 to 100,000 events/sample were acquired and analyzed with CellQuest software.
We characterized the nature of cells secreting the IFNγ by flow cytometry. Mice were immunized once with the different peptides and an additional group was infected with MCMV. Seven days later, spleens were removed and cell suspensions were cultured for 5 days with or without 89pep. […] Infection with MCMV and re-stimulation with 89pep induced the highest percentage of IFNγ^+CD8^+ T cells (FIG. 5B). Staining was specific to IFNγ since no CD8^+IL-4^+ or CD8^+IL-5^+ cells were observed.

[7] = test system: IVIG-IL (anti-WNV Abs); assay: ELISA recognition of peptides by IVIG-IL; assay type: binding, human; conditions: peptide 1 μg/well; IVIG-IL 1:40 dilution
Procedure: (§1) ELISA tests were performed according to the method described by Martin et al (Martin et al, 2000) with slight modifications. Briefly, microtiter plates were coated and incubated overnight at 4° C. with 100 μl of the different peptides (1 μg/well) or WNV antigen diluted 1:700 in coating buffer (NaHCO3, pH=9.6). After incubation, the coating buffer was decanted and the plates were washed twice in PBS containing 0.05% Tween 20 and 0.2% sodium azide (washing buffer). After blocking for 1 h with a 200 μl/wen of PBS containing 0.05% Tween 20 and 2.5% nonfat dry milk, the plates were washed 4 times in washing buffer and 100 μl of IVIG-IL or mouse sera at 1:40 dilution were added to each well (2-4 wells per sample). Negative and positive controls of human or mouse sera were tested in each plate. […] The color intensity was measured by ELISA-reader (Dynatec MR 5000) at the absorbance of 405 nm.
(§2) Next, it was examined whether the candidate epitope is recognized by a serum immunoglobulin pool taken from Israeli donors (IVIG-IL), which contains anti-WNV Abs. […] After blocking and washing, IVIG-IL was added at 1:40 dilution and binding was detected. […]

[8] = test system: WNV; assay: Protective efficacy of immunization against WNV challenge (mortality); assay type: in vivo, BALB/c mice; conditions: for Mortality (% deaths) / Mortality (dead of total): 3 immunizations, 10^6 pfu WNV, 21 days post challenge, 5 experiments
[9] = test system: serum from WNV-infected mice; assay: ELISA recognition of peptides by serum from WNV-infected mice; assay type: binding; conditions: peptide 1 μg/well; sera 1:40 dilution
Procedure: as §1, §2

[10] = test system: sera from WNV-exposed human subjects; assay: ELISA recognition of WNV peptides by human sera; assay type: binding; conditions: for Recognition by sera of WNV-exposed and unexposed human subjects: ELISA, peptide as antigen
Procedure: Sera from WNV-exposed and non-exposed human subjects was assayed for antibodies recognizing the novel WNV peptide antigens, p15 (SEQ ID NO:11) and p17 (SEQ ID NO:21). FIG. 17 presents the results of an ELISA test in which the p15 and p17 served as the antigen, human sera were used as the primary antibody and HRP-conjugated anti-human Abs were used as the secondary antibody. RLU are the relative luminescence units produced by HRP activity on the luminal substrate.
Sera S2 and S6 are from human that were not infected with WNV while sera S1, S3-S5 and S7 are from human that had history of WNV infection.

[11] = test system: IFNγ; assay: IFNγ ELISA of spleen and salivary gland cell cultures after vaccination; assay type: in vivo, BALB/c mice; conditions: 10 days after single immunization; for IFNγ secretion of spleen cells stimulated in vitro with p458: 3 d stimulation with p458
[12] = test system: IFN-γ; assay: IFN-γ secretion of splenocytes from mice immunized with p15 conjugates, stimulated in vitro with p15; assay type: in vivo; conditions: spleens 10 days after immunization; p15 25 μg/ml, 3 days
Procedure: (§3) Mice were immunized with the following peptides as described in Example 8 using the following peptides: p15 (SEQ ID NO:11), p32 (SEQ ID NO:13), Ec27-p15 ([…], SEQ ID NO:77), and Mock-p15 ([…], SEQ ID NO:80—the p431 peptide fused to p15).
(§4) Spleens were harvested 10 days after the immunization and splenocytes were cultured with p15 (25 μg/ml) for 3 days. Cell proliferation and IFNγ levels in the supernatants of spleen cell cultures were measured. Results are the average of 3 independent proliferation experiments. Ec27-Ep15* and Ec27-Ep15** are two identical but independent groups in the same experiment.

[13] = test system: splenocytes; assay: Proliferation of splenocytes from mice immunized with p15 conjugates, stimulated in vitro with p15; assay type: in vivo; conditions: spleens 10 days after immunization; p15 25 μg/ml, 3 days
Procedure: as §3, §4

[14] = test system: MCMV gB DNA; assay: PCR of MCMV gB DNA in salivary glands of immunized, MCMV-challenged mice; assay type: in vivo, BALB/c mice; conditions: day 28 after MCMV challenge

FNNFTVSFWLRVPKVSASHLEYPHFMPTNL [TTp30-89pep]
Effect of immunization on salivary gland viral load ([1]; day 28 after MCMV challenge): reduced viral load on day 28 by two fold; also recorded: failed to eliminate infectious virus on day 28; also recorded: contained infectious virus on day 28 post challenge | Effect of immunization on salivary gland viral load ([1]; days 14 and 21 after MCMV challenge): did not affect viral load on days 14 and 21 | CD8+IFNγ+ cells in salivary gland [2]: CD8^+IFNγ^+ cells were observed

YPHFHPTNL [89pep]
IL-4 levels after Con-A stimulation in vitro [3]: 146 pg/mL | CMV load at the salivary gland (MCMV-DNA PCR) [4]: did not affect CMV load | 89pep-specific lytic (CTL) activity [5]: No lytic activity was observed | Effect of immunization on salivary gland viral load ([1]; day 28 after MCMV challenge): marginal advantage compared to IFA-immunized mice; also recorded: contained infectious virus on day 28 post challenge | Infectious MCMV titer in salivary gland ([1]; day 28 after MCMV challenge): 4.5 log10 pfu/0.1 g | IFNγ+CD8+ T cells in spleen cell cultures [6]: very few IFNγ^+CD8^+ T cells | CD8+IFNγ+ cells in salivary gland [2]: CD8^+IFNγ^+ cells were observed

LVTVNPFVSVATANS [p15]
Recognition by IVIG-IL [7]: recognized by IVIG-IL | Mortality (% deaths) [8]: (53%) | Mortality (dead of total) [8]: 8/15 | Protective efficacy against WNV challenge ([8]; summary of 5 experiments): slight protective efficacy | Recognition by serum from WNV-infected mice [9]: specifically recognized | Recognition by sera of WNV-exposed and unexposed human subjects [10]: specifically recognized by WNV-exposed sera and not by sera from unexposed subjects | Recognition by sera from Dengue-infected humans ([10]; data not shown): did not recognize

YIVVGRGEQQINHHWHK [p17]
Recognition by sera of WNV-exposed and unexposed human subjects [10]: specifically recognized by WNV-exposed sera and not by sera from unexposed subjects

EGDEATGANI-KVALEAYPHFHPTNL (EGDEATGANIKVALEAYPHFHPTNL) [control-89pep]
Effect of immunization on salivary gland viral load ([1]; day 28 after MCMV challenge): did not affect the viral load

NEDQKIGIEIIKRALKI [p458]
IL-4 levels after Con-A stimulation in vitro [3]: 184 pg/mL | Mortality (% deaths) [8]: (57%) | Mortality (dead of total) [8]: 4/7 | IFNγ secretion of spleen cells stimulated in vitro with p458 [11]: high levels of IFNγ

KKARVEDALHATRAAVEEGVLVTVNPFVSVATANS [Ec27-p15]
IFN-γ secretion of spleen cells in the presence of p15 [12]: more effective than p15 alone | Proliferation of spleen cells in the presence of p15 [13]: more effective than p15 alone

NEDQKIGIEIIKRALKIYPHFHPTNL [p458-89pep]
IL-4 levels after Con-A stimulation in vitro [3]: 317 pg/mL | CMV load at the salivary gland (MCMV-DNA PCR) [4]: reduced viral load to undetectable levels | 89pep-specific lytic (CTL) activity [5]: lysed the target cells | Effect of immunization on salivary gland viral load ([1]; day 28 after MCMV challenge): showed no infectious MCMV in the salivary gland | Infectious MCMV titer in salivary gland ([1]; day 28 after MCMV challenge): < 2 log10 pfu/0.1 g | MCMV gB PCR product in salivary glands [14]: failed to reveal any gB PCR product | IFNγ secretion of spleen cells stimulated in vitro with p458 [11]: high levels of IFNγ | IFNγ secretion of spleen cells re-stimulated in vitro with 89pep ([11]; 3 d stimulation, 89pep 10 μg/ml): significantly higher (p<0.05) levels of IFNγ | IFNγ+CD4+ T cells in spleen cell cultures [6]: no IFNγ^+CD4^+ T cells | IFNγ+CD8+ T cells in spleen cell cultures [6]: induced IFNγ^+CD8^+ T cells | CD8+IFNγ+ cells in salivary gland [2]: larger than that of the other groups

Nc1nc(O)c2ncn(COC(CO)CO)c2n1 [GCV, Gancyclovir]
CMV load at the salivary gland (MCMV-DNA PCR) [4]: did not suffice for therapy
